Data from patent US9878036B2, “Immunomodulatory compositions comprising a polymer matrix and an oil phase” (Sigmoid Pharma Limited, priority 2009, dated 2018).

Tested on: BALB/c mice
Settings: mouse, in vivo, po

For “ovalbumin alone in solution: model antigen ovalbumin (200 μg/mouse) in bicarbonate buffer, oral comparator”, the “OVA-specific IgG antibodies in sera” value was “variable IgG antibody responses”.
